According to patent EP2118065B1, “Substituted 1H-benz[de]isoquinoline-1,3-diones” (priority 2007, dated 2008):

Key:
U-937 lymphoma = assay: MTT in vitro cytotoxicity; conditions: Homo sapiens, U-937, 96 h, read-out: IC50 value Lymphoma U-937
S-180 [1] = assay: In vivo anticancer activity: increase in median survival time; parameters: species or system Swiss albino male mice; conditions: S-180, 7 injns.
caspase-6 = assay: Caspase-6 colorimetric assay in MOLT-4 cells; format: cell-based, Human; conditions: 5 µg/ml, 24 hrs
Method: Caspase 3 activity was measured by using caspase-3 colorimetric Assay kit (R&D Systems USA). Briefly, MOLT-4 (∼2x10^6cells) were treated with Compound 3f, camptothecin (5µM) and staurosporine (1µM) for 24h, and then cell centrifuged and pellet was lysed using 50µL cell lysis buffer. Cell lysates were mixed with 10µL of dithiothreitol (DTT) and 50µL reaction buffer (2X) containing 5 µL DEVD-pNA, a caspase-3 substrate, and incubated upto 24 hr at 37°C. Additional controls were included in this assay containing no cell lysate without substrate Enzyme-catalyzed release of pNA was monitored using a microplate reader at 405 nm (Fig. 2). Likewise, Caspase 6 activity was also measured using caspase-6 colorimetric Assay kit (R&D Systems USA). However, the enzyme and enzyme substrate (VEID-pNA) were different (Fig. 3). Treatment of the cells with Compound 3f induced caspase-3/6 activities. […] (Fig 2).

HL-60 human leukemia = assay: MTT in vitro cytotoxicity; conditions: Homo sapiens, HL-60, 96 h, read-out: IC50 value Leukemia HL-60
HT-29 = assay: SRB in vitro cytotoxicity, human tumor cell line; format: cell-based; conditions: 10^-5 M, Colon: HT-29, read-out: growth inhibition
Method: (§1) Compounds 3a-g were screened by sulforhodamine-B (SRB) semi-automated assay in a battery of cell lines. […] A., et. al. (1991); Feasibility high flux anticancer screen utilizing diverse panel of human tumor cell lines in culture. J Natl Cancer Inst. 83, 757-766]. Each compound was tested in triplicate sets of experiments at 10^-4 to 10^-6 M concentrations (Table 4).
(§2) A stock solution of 2 x 10^-2M was prepared in DMSO. The stock solutions were serially diluted to obtain working test solutions with complete growth medium (RPMI-1640 medium with 2mM glutamine, 100µg/ml streptomycin, pH 7.4, sterilized by filtration and supplemented with 10% fetal bovine serum and 100 units/ml penicillin before use) containing 50 µg/ml of gentamycin to obtain working test solutions. The working test solutions were not filtered/ sterilized but microbial contamination was controlled by addition of gentamycin in complete growth medium used for dilution of stock solutions to prepare working test solutions.
(§3) In vitro cytotoxicity against human cancer cell lines was determined^2 [Monk. A., et. al. (1991); Feasibility high flux anticancer screen utilizing diverse panel of human tumor cell lines in culture. J Natl Cancer Inst. 83, 757-766] using 96-well tissue culture plates. The cells were grown in tissue culture flasks in complete growth medium at 37°C in an atmosphere of 5% CO2 and 95% relative humidity in a carbon dioxide incubator. The cell suspension of required cell density (1-2 lakhs/ml) depending on the mass doubling time of cell lines was prepared in complete growth medium for determination of cytotoxicity. The aliquots of 100 µl of cell suspension were added to each well on a 96-well tissue culture plate. The blank wells contained complete medium in place of cell suspension. Simultaneously, control experiments with positive controls containing known anticancer agents were carried out. Cells were incubated for 24 hr.
(§4) The test materials (100 µl in each well) were added after 24-hours to the wells containing cell suspension and blank wells. The cells were allowed to grow in presence of test material by further incubating the plates for 48 hours. At the end of incubation period the cell growth was stopped by gently layering trichloroacetic acid (50% TCA, 50µl/well) on top of the medium in all the wells. The plates were incubated at 4°C for 1 hr. The plates were washed five times with distilled water to remove TCA, growth medium, low molecular weight metabolites, serum proteins etc. and air-dried.
(§5) The cell growth was measured^3 [Skehan, P, Storeng, R Scudiero, D, Monks, A, Mcmahon, J, Vistica, D, Warren, J.T., Bokesch, H., Kenney, S., Boyd, M.R. (1990). New colorimetric cytotoxicity assay for anti-cancer drug screening. J Natl Cancer Inst. 82: 1107-12] by staining with Sulphorhodamine B. Sulphorhodamine B (SRB, 0.4% in 1% acetic acid, 100 µl/well) was added to each well and plates were allowed to stand at room temperature for 30 minutes. The plates were washed with 1% acetic acid four times and then dried. Tris-HCl buffer (0.01 M, pH 10.5, 100 µl/well) was added to each well to solublise the dye. The plates were shaken gently for 10 minutes on a shaker and the optical density was recorded on ELISA reader at 540 nm. The cell growth was determined by subtracting mean OD value of respective blank from the mean OD value of experimental set. Percent growth in presence of test material was calculated considering the growth in absence of any test material as 100% and in turn percent growth inhibition in presence of test material was calculated. All the experiments were carried out in quadruplicate.

IMR-32 = assay: SRB in vitro cytotoxicity, human tumor cell line; format: cell-based; conditions: 10^-5 M, Neuroblastoma: IMR-32, read-out: growth inhibition
Method: as §1, §2, §3, §4, §5

PC-3 = assay: SRB in vitro cytotoxicity, human tumor cell line; format: cell-based; conditions: 10^-5 M, Prostate: PC-3, read-out: growth inhibition
Method: as §1, §2, §3, §4, §5

MCF-7 = assay: SRB in vitro cytotoxicity, human tumor cell line; format: cell-based; conditions: MCF7, 10^-5 M, Breast: MCF-7, read-out: growth inhibition
Method: as §1, §2, §3, §4, §5

SKOV-3 = assay: SRB in vitro cytotoxicity, human tumor cell line; format: cell-based; conditions: SK-OV-3, 10^-5 M, Ovarian: SKOV-3, read-out: growth inhibition
Method: as §1, §2, §3, §4, §5

OVCAR-5 = assay: SRB in vitro cytotoxicity, human tumor cell line; format: cell-based; conditions: 10^-5 M, Ovary: OVCAR-5, read-out: growth inhibition
Method: as §1, §2, §3, §4, §5

SW-620 = assay: SRB in vitro cytotoxicity, human tumor cell line; format: cell-based; conditions: 10^-5 M, Colon: SW-620, read-out: growth inhibition
Method: as §1, §2, §3, §4, §5

SK-N-SH = assay: SRB in vitro cytotoxicity, human tumor cell line; format: cell-based; conditions: 10^-5 M, Neuroblastoma: SK-N-SH, read-out: growth inhibition
Method: as §1, §2, §3, §4, §5

S-180 [2] = assay: In vivo tumor growth inhibition study; parameters: species or system mice
Source text: Compound 3f was selected for tumor growth inhibition study. 18 mice each were taken for treated and control groups and inoculated with 1 x 10^6 S-180 cells. After sacrificing mice from the respective groups sequentially on days 9, 14 and 19 following drug treatment on day 1-7 at doses indicated, the ascites fluid from peritoneal cavities of animals were quantitatively transferred and the peritoneal cavities were washed with measured volume of physiological saline. The total number of tumor cells were counted and ascites fluid volume were measured. Averages ( x ± S.E.M.) were made of these two parameters and the percentage inhibitions [(1 - T/C) ×100] were calculated for each dose.

For O=C1c2cccc3c([N+](=O)[O-])ccc(c23)C(=O)N1CCCCl [Compound 3f, 6-Nitro-2-[3-(Chloropropyl)]-1H-benz[de]isoquinoline-1,3-dione], which IC50 (U-937 lymphoma) is on record?
Its IC50 is 1950 nM.

What about the “MST” value (S-180 [1]; 30 mg/kg i.p., days 1-7) of the same compound?
Its value is 25.0 days.

What about the “MST” value (S-180 [1]; 60 mg/kg i.p., days 1-7) of the same compound?
The value was 29.0 days.

What about the “MST” value (S-180 [1]; 60 mg/kg i.p., days 5-11) of the same compound?
Its value is 21.0 days.

What about the Caspase-6 activity (caspase-6) of the same compound?
Its Caspase-6 activity is “maximum at 5 µg/ml for 24 hrs”.

And the IC50 (HL-60 human leukemia)?
Its IC50 is 300 nM.

What about the inhibition at 10 µM (HT-29) of the same compound?
Its inhibition at 10 µM is over 50%.

What about the inhibition at 10 µM (IMR-32) of the same compound?
Its inhibition at 10 µM is over 50%.

What about the inhibition at 10 µM (PC-3) of the same compound?
The inhibition at 10 µM was over 50%.

And the inhibition at 10 µM (MCF-7)?
Its inhibition at 10 µM is over 50%.

What about the inhibition at 10 µM (SKOV-3) of the same compound?
Its inhibition at 10 µM is at most 50%.

What about the inhibition at 10 µM (OVCAR-5) of the same compound?
Its inhibition at 10 µM is over 50%.

What about the inhibition at 10 µM (SW-620) of the same compound?
Its inhibition at 10 µM is over 50%.

What about the inhibition at 10 µM (SK-N-SH) of the same compound?
Its inhibition at 10 µM is over 50%.

What about the “inhibition in S-180 tumor growth” value (S-180 [2]; 19th day, after drug treatment on day 1-7) of the same compound?
Its value is “about 20%”.

What about the “inhibition in S-180 tumor growth” value (S-180 [2]; day 9, after drug treatment on day 1-7) of the same compound?
Its value is 84%.
